Experimental data published in US20150181901A1, “Compositions and Methods for Tissue Storage” (priority 2012, published 2015).
Values joined by “and” are separate entries in the source; they are usually repeats but may differ in a detail not shown here. Equal entries are not always repeated.

Experiments:
[1] = Freeze/thaw cycling of meat soaked in trehalose solution: fluid loss and weight loss (chicken)
Procedure: (§1) Variables included the high and low temperatures of the temperature range, and frequency of the freeze/thaw cycles. In one embodiment, treated meat samples were placed in a minus 40 degrees C. freezer for 24 hours, followed by room temperature for 6 hours, which was followed by 18 hours at 0.5 to 5.0 degrees C., in a refrigerator. This cycle was immediately followed by minus 40 degrees C. freezer for 24 h, room temperature for 6 h, which was followed by 18 hours at 0.5 to 5.0 degrees C., in a refrigerator. Chicken breast fillet, pork chops, and London broil beef, were obtained from local suppliers and were cut in water. Each type of meat was cut into four even-sized pieces, and the weight was recorded. Each piece was immersed separately in either water or in test solution, e.g., trehalose or saline, for 12 h. The meat was removed from the water, and excess water was blotted off. Place each sample in a Ziploc® plastic bag. Weights were recorded. The weighed samples were set in a container, and placed in a freezer, where each sample was at the same level (same level relative to the floor of the freezer). The freezer (minus 40 degrees C.) was Puffer Hubbard Model #4017A-U-A, Harris Manufacturing Co., North Billerica, Mass. […] Then, the following steps were used: Repeat Steps 1 to 4 until a total of 14 days have passed. Step 1. After 24 h in the freezer, remove the container bearing all of the samples. Take photographs of the samples and record the date. Thawing occurs when the meat is taken from the freezer and left in the refrigerator. Although the meat is completely thawed prior to 24 hours of incubation in the refrigerator, the time of 24 hours was used to standardize the procedure. Step 2. Place all samples (still in the same container) in refrigerator. Step 3. After in the refrigerator 24 h, then remove the container with all the samples, and take photos and record the date. Step 4. Place samples, still in the same container, in the freezer. As mentioned above, repeat Steps 1 to 4 until a total of 14 days have passed. Step 5. After the last sample photos were taken, samples were removed from its bag, and the weight was recorded after removing excess ice from the sample. The ice is left in the bag. Replace sample in Ziploc® bag. Place all bags at room temperature until all the ice has melted, and pour fluid into clear plastic tube with graduated side (fluid from each bag), and record the volumes of the fluid. Alternatively, volume can be determined with a pipette. Step 6. Place all weighed meat samples into the same Ziploc® bag, and place back in the refrigerator to thaw. After thawing, remove the meat samples from each bag, and pour excess fluid into graduated cylinder tubes (the tubes that held the ice that had melted), and record additional volumes. Between the first week (three freeze/thaw cycles) and the second week (three more freeze/thaw cycles), there was no re-exposure to trehalose. All samples were removed from the refrigerator. Liquid was in most of the sample bags. Fluid was removed by a pipette and the volume was recorded, and the meat sample was weighed. Samples of about 1-2 grams were taken using a no. 10 scalpel, and placed in formalin. FIG. 6 discloses the volume of fluid lost during the second week of freeze/thaw cycles.

[2] = Freeze/thaw cycling of meat soaked in trehalose solution: fluid loss and weight loss (pork); details: for weight loss: post 3 freeze/thaw cycles, first week (FIG. 4), 0% trehalose about 10%
Procedure: as §1

[3] = Freeze/thaw cycling of meat soaked in trehalose solution: fluid loss and weight loss (beef); details: for weight loss: post 3 freeze/thaw cycles, first week (FIG. 4), 0% trehalose about 18%
Procedure: as §1

[4] = 0%, 5%, 10%, 15% trehalose, three freeze/thaw cycles, first week (FIG. 1)
[5] = cumulative, first and second week (FIG. 12)
[6] = second week of freeze/thaw cycles (FIG. 8)
[7] = second week of freeze/thaw cycles, no re-exposure to trehalose

With `OC[C@H]1O[C@H](O[C@H]2O[C@H](CO)[C@@H](O)[C@H](O)[C@H]2O)[C@H](O)[C@@H](O)[C@@H]1O` [trehalose, trehalose dihydride] the “loss of water/10 grams of meat” value ([1]; chicken, 15% trehalose, first week (FIG. 5), 0% trehalose about 1.8) was 0.47 mL/10 grams of meat, the “trehalose concentration with maximal effect on cumulative weight loss” value ([1]; chicken, cumulative, first and second week (FIG. 12)) was 15% and the “effect of trehalose on weight loss” value ([1]; chicken, first week (FIG. 17)) was “reduction was about the same (plateau in trehalose effect) for 5%, 10%, and 15% trehalose”. For the same compound, the “effect of trehalose on weight loss” value ([1]; chicken, second week (FIG. 17)) was “weight reduction by trehalose was only found at 10% and 15% trehalose”, the “trehalose concentration with lowest weight loss” value ([1]; chicken, second week of freeze/thaw cycles (FIG. 8)) was 15% and the “trehalose concentration with maximal effect on reducing fluid loss” value ([1]; chicken, second week of freeze/thaw cycles, no re-exposure to trehalose) was 15%. The weight loss ([1]; chicken, soaked in 5%, 10%, or 15% trehalose, post-soak weight vs post 3 freeze/thaw cycles, first week (FIG. 4), 0% trehalose 18%) was 10-11%, the “effect of trehalose concentration on volume of fluid lost” value (“effect of trehalose concentration” for short) ([1]; poultry, 0%, 5%, 10%, 15% trehalose, three freeze/thaw cycles, first week (FIG. 1)) was “Increasing the concentration of trehalose resulted in decreasing volumes of fluid lost” and the “effect of trehalose concentration” value [2, 4] was “Increasing the concentration of trehalose resulted in decreasing volumes of fluid lost”. For the same compound, the “loss of water/10 grams of meat” value ([2]; 15% trehalose, first week (FIG. 5), 0% trehalose 1.0) was 0.4 mL/10 grams of meat, the “trehalose concentration with maximal effect on cumulative weight loss” value [2, 5] was 15% and the “effect of trehalose on weight loss” value ([2]; first week (FIG. 18)) was “reduction was progressively effective for 5%, 10%, and 15% trehalose”. For the same compound, the “effect of trehalose on weight loss” value ([2]; second week (FIG. 18)) was “weight reduction seemed to plateau when trehalose was in the range of 5-15% trehalose”, the “trehalose concentration with lowest weight loss” value [2, 6] was 5% (or 15%) and the “trehalose concentration with maximal effect on reducing fluid loss” value [2, 7] was 15%. The weight loss ([2]; soaked in 5% trehalose) was “about 9%”, the weight loss ([2]; soaked in 10% trehalose) was “about 8%” and the weight loss ([2]; soaked in 15% trehalose) was “about 5%”. For the same compound, the “effect of trehalose concentration” value [3, 4] was “Increasing the concentration of trehalose resulted in decreasing volumes of fluid lost”, the “loss of water/10 grams of meat” value ([3]; 10% trehalose, first week (FIG. 5), 0% trehalose about 1.8) was “about 0.9 mL/10 grams of meat” and the “fluid loss for the first week relative to fluid loss for the second week” value ([3]; at each respective trehalose value (FIG. 16)) was 2-3 times. For the same compound, the “trehalose concentration with maximal reduction in cumulative fluid loss” value ([3]; cumulative, first and second week) was 10% and 10-15%, the “trehalose concentration with maximal effect on cumulative weight loss” value [3, 5] was 10% and 10-15% and the “effect of trehalose on weight loss” value ([3]; first week (FIG. 19)) was “reduction was progressively effective for 5%, 10%-15% trehalose”. The “effect of trehalose on weight loss” value ([3]; second week (FIG. 19)) was “weight reduction seemed to plateau when trehalose was in the range of 5-15% trehalose”, the “trehalose concentration with lowest weight loss” value [3, 6] was 15% and the “trehalose concentration with maximal effect on reducing fluid loss” value [3, 7] was 10%. The weight loss ([3]; soaked in 5% trehalose) was about 15%, the weight loss ([3]; soaked in 10% trehalose) was “about 8%” and the weight loss ([3]; soaked in 15% trehalose) was “about 10%”.
